For 68 molecules, IC50 results are on record in patent publication US20060252807A1, “Novel ortho-terphenyl inhibitors of p38 kinase and methods of treating inflammatory disorders” (Kalypsys, Inc., priority 2005, published 2006).

For this test, the target named is T1, active p38 alpha enzyme (Upstate Biotechnology) (Homo sapiens, UniProt Q16539).
T1 construct: purchased Upstate Biotechnology
Put plainly: p38α biochemical assay (ATP turnover, luminescent detection, Cambrex PKlight). Conditions: p38α kinase; Table 1 Biological Activity. Put shortly:
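Active p38α phosphorylates MapkapK2 whole protein with 1.4 uM final ATP, 2 h at 30C, in Tris/MOPS buffer with MgCl2, CaCl2, EGTA, EDTA, glycerol, β-mercaptoethanol and 1 mg/ml BSA. Compounds pin-delivered from DMSO; total ATP turnover read by luminescence after PKlight addition.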

T1 sequence (Q16539 whole entry): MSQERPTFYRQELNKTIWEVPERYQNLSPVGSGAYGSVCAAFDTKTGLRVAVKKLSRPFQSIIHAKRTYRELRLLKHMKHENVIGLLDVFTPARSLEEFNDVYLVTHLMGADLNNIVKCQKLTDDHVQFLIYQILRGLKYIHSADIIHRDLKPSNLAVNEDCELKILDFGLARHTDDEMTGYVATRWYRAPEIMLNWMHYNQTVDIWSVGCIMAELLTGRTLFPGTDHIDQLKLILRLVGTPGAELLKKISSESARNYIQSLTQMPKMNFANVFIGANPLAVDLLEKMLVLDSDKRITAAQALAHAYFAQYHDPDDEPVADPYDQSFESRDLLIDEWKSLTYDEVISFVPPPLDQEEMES

Turning to `COc1ccc(C(=O)CNCc2nc(-c3ccc(F)cc3)c(-c3nc(C(=O)NC(C)C)cs3)o2)cc1` [Example 1177], the IC50 is above 1 µM.
On to `CC(C)NC(=O)c1csc(-c2oc(CNCCc3ccc4c(c3)OCO4)nc2-c2ccc(F)cc2)n1` [Example 1178], for which the IC50 was above 1 µM.
The value for `CC(C)NC(=O)c1csc(-c2oc(CNCCC(c3ccccc3)c3ccccc3)nc2-c2ccc(F)cc2)n1` [Example 1179] was above 1 µM; that for `Cc1ccc(S(=O)(=O)NCCNCc2nc(-c3ccc(F)cc3)c(-c3nc(C(=O)NC(C)C)cs3)o2)cc1` [Example 1180] was at most 1 µM; that for `CC(C)NC(=O)c1csc(-c2oc(CBr)nc2-c2ccc(F)cc2)n1` [Example 1181] was above 1 µM.
Take `CC(C)NC(=O)c1csc(-c2oc(CN(C)C)nc2-c2ccc(F)cc2)n1` [Example 1182]: the IC50 was at most 1 µM.
As for `CC(C)NC(=O)c1csc(-c2oc(CN3CCOCC3)nc2-c2ccc(F)cc2)n1` [Example 1183], the figure is at most 1 µM; as for `CCN(C)Cc1nc(-c2ccc(F)cc2)c(-c2nc(C(=O)NC(C)C)cs2)o1` [Example 1186], above 1 µM.
In the case of `C#CCN(C)Cc1nc(-c2ccc(F)cc2)c(-c2nc(C(=O)NC(C)C)cs2)o1` [Example 1187], the IC50 is above 1 µM.
The value for `CCN(CC)Cc1nc(-c2ccc(F)cc2)c(-c2nc(C(=O)NC(C)C)cs2)o1` [Example 1188] was above 1 µM; that for `CCCN(C)Cc1nc(-c2ccc(F)cc2)c(-c2nc(C(=O)NC(C)C)cs2)o1` [Example 1189] was above 1 µM; that for `CC(C)NC(=O)c1csc(-c2oc(CN(C)CCO)nc2-c2ccc(F)cc2)n1` [Example 1190] was above 1 µM.
The value for `CC(C)NC(=O)c1csc(-c2oc(CN(C)CCC#N)nc2-c2ccc(F)cc2)n1` [Example 1191] was above 1 µM; that for `CC(C)CN(C)Cc1nc(-c2ccc(F)cc2)c(-c2nc(C(=O)NC(C)C)cs2)o1` [Example 1192] was above 1 µM; that for `CCN(Cc1nc(-c2ccc(F)cc2)c(-c2nc(C(=O)NC(C)C)cs2)o1)C(C)C` [Example 1193] was above 1 µM.
As to `CCCCN(C)Cc1nc(-c2ccc(F)cc2)c(-c2nc(C(=O)NC(C)C)cs2)o1` [Example 1194], the IC50 was above 1 µM.
`CCN(CCO)Cc1nc(-c2ccc(F)cc2)c(-c2nc(C(=O)NC(C)C)cs2)o1` [Example 1195] displayed an IC50 above 1 µM.
As for `CC(C)NC(=O)c1csc(-c2oc(CN3CCSC3)nc2-c2ccc(F)cc2)n1` [Example 1196], the figure is above 1 µM.
The value for `CC(C)NC(=O)c1csc(-c2oc(CN3CCCCC3C)nc2-c2ccc(F)cc2)n1` (centres unmarked) [Example 1197] was above 1 µM; that for `CC1CCN(Cc2nc(-c3ccc(F)cc3)c(-c3nc(C(=O)NC(C)C)cs3)o2)CC1` [Example 1198] was above 1 µM.
As for `CC(C)NC(=O)c1csc(-c2oc(CN3CCN(C)CC3)nc2-c2ccc(F)cc2)n1` [Example 1199], the figure is above 1 µM.
For the molecule `CC(C)NC(=O)c1csc(-c2oc(CN3CCCC3CO)nc2-c2ccc(F)cc2)n1` (centres unmarked) [Example 1200], the IC50 is above 1 µM.
The value for `CC(C)NC(=O)c1csc(-c2oc(CN3CCC[C@@H]3CO)nc2-c2ccc(F)cc2)n1` [Example 1201] was above 1 µM.
As for `CCCCN(CC)Cc1nc(-c2ccc(F)cc2)c(-c2nc(C(=O)NC(C)C)cs2)o1` [Example 1202], the IC50 is above 1 µM.
The value for `CCCN(CCC)Cc1nc(-c2ccc(F)cc2)c(-c2nc(C(=O)NC(C)C)cs2)o1` [Example 1203] was above 1 µM; that for `CC(C)NC(=O)c1csc(-c2oc(CN3CCSCC3)nc2-c2ccc(F)cc2)n1` [Example 1204] was above 1 µM.
As for `CC(C)NC(=O)c1csc(-c2oc(CN(CCO)CCO)nc2-c2ccc(F)cc2)n1` [Example 1205], the figure is above 1 µM.
The value for `CC1CC(C)CN(Cc2nc(-c3ccc(F)cc3)c(-c3nc(C(=O)NC(C)C)cs3)o2)C1` (centres unmarked) [Example 1206] was above 1 µM.
Regarding `CC(C)NC(=O)c1csc(-c2oc(CN(C)C3CCCCC3)nc2-c2ccc(F)cc2)n1` [Example 1207], the IC50 is above 1 µM.
Turning to `CC(C)NC(=O)c1csc(-c2oc(CN3C(C)CCCC3C)nc2-c2ccc(F)cc2)n1` (centres unmarked) [Example 1208], the IC50 was above 1 µM.
The value for `CC(C)NC(=O)c1csc(-c2oc(CN3CCC(N(C)C)C3)nc2-c2ccc(F)cc2)n1` (centres unmarked) [Example 1209] was above 1 µM; that for `CC(C)NC(=O)c1csc(-c2oc(CN3C[C@@H](C)N[C@@H](C)C3)nc2-c2ccc(F)cc2)n1` [Example 1210] was above 1 µM; that for `CC(C)NC(=O)c1csc(-c2oc(CN3CCCC(CO)C3)nc2-c2ccc(F)cc2)n1` (centres unmarked) [Example 1211] was above 1 µM.
As for `COC[C@@H]1CCCN1Cc1nc(-c2ccc(F)cc2)c(-c2nc(C(=O)NC(C)C)cs2)o1` [Example 1212], the figure is above 1 µM.
The value for `CC(C)NC(=O)c1csc(-c2oc(CN3CC(C)OC(C)C3)nc2-c2ccc(F)cc2)n1` (centres unmarked) [Example 1213] was above 1 µM; that for `CC(C)NC(=O)c1csc(-c2oc(CN3CCCCC3CO)nc2-c2ccc(F)cc2)n1` (centres unmarked) [Example 1214] was above 1 µM.
With `CCN(CCCCO)Cc1nc(-c2ccc(F)cc2)c(-c2nc(C(=O)NC(C)C)cs2)o1` [Example 1215], the IC50 is above 1 µM.
As for `CC(C)NC(=O)c1csc(-c2oc(CN3Cc4ccccc4C3)nc2-c2ccc(F)cc2)n1` [Example 1216], the figure is above 1 µM; as for `CC(C)NC(=O)c1csc(-c2oc(CN(C)Cc3ccccc3)nc2-c2ccc(F)cc2)n1` [Example 1217], above 1 µM.
As for `CCN(Cc1nc(-c2ccc(F)cc2)c(-c2nc(C(=O)NC(C)C)cs2)o1)C1CCCCC1` [Example 1218], the figure is above 1 µM; as for `CC(C)NC(=O)c1csc(-c2oc(CN3CCC(C(N)=O)CC3)nc2-c2ccc(F)cc2)n1` [Example 1219], above 1 µM; as for `CC(=O)N[C@H]1CCN(Cc2nc(-c3ccc(F)cc3)c(-c3nc(C(=O)NC(C)C)cs3)o2)C1` [Example 1220], above 1 µM.
Take `CC(C)NC(=O)c1csc(-c2oc(CN3CCCC(C(N)=O)C3)nc2-c2ccc(F)cc2)n1` (centres unmarked) [Example 1222]: the IC50 was above 1 µM.
The molecule `CC(C)NC(=O)c1csc(-c2oc(CN3CCCCC3CCO)nc2-c2ccc(F)cc2)n1` (centres unmarked) [Example 1223] registered an IC50 above 1 µM.
The value for `CC(C)NC(=O)c1csc(-c2oc(CN3CCc4ccccc4C3)nc2-c2ccc(F)cc2)n1` [Example 1224] was above 1 µM; that for `CCN(Cc1ccccc1)Cc1nc(-c2ccc(F)cc2)c(-c2nc(C(=O)NC(C)C)cs2)o1` [Example 1225] was above 1 µM; that for `CC(C)NC(=O)c1csc(-c2oc(CN(C)CCc3ccccc3)nc2-c2ccc(F)cc2)n1` [Example 1227] was above 1 µM.
As for `CC(C)NC(=O)c1csc(-c2oc(CN(C)CCc3ccccn3)nc2-c2ccc(F)cc2)n1` [Example 1228], the figure is above 1 µM.
The value for `CC(C)NC(=O)c1csc(-c2oc(CN3CCCC4CCCCC43)nc2-c2ccc(F)cc2)n1` (centres unmarked) [Example 1230] was above 1 µM; that for `C=CCN(Cc1nc(-c2ccc(F)cc2)c(-c2nc(C(=O)NC(C)C)cs2)o1)C1CCCCC1` [Example 1231] was above 1 µM; that for `COC(=O)C1CCN(Cc2nc(-c3ccc(F)cc3)c(-c3nc(C(=O)NC(C)C)cs3)o2)CC1` [Example 1232] was above 1 µM.
`CC(C)NC(=O)c1csc(-c2oc(CN(Cc3ccccc3)C(C)C)nc2-c2ccc(F)cc2)n1` [Example 1233] displayed an IC50 above 1 µM.
As for `CC(C)NC(=O)c1csc(-c2oc(CN(CCO)Cc3ccccc3)nc2-c2ccc(F)cc2)n1` [Example 1234], the figure is above 1 µM.
As for `CC(C)NC(=O)c1csc(-c2oc(CN(C)CC(O)c3ccccc3)nc2-c2ccc(F)cc2)n1` (centres unmarked) [Example 1235], the figure is above 1 µM.
`CC(C)NC(=O)c1csc(-c2oc(CN3CCC(O)(O)CC3)nc2-c2ccc(F)cc2)n1` [Example 1236] had a 50% inhibitory concentration (IC50) above 1 µM.
The value for `CCOC(=O)C1CCN(Cc2nc(-c3ccc(F)cc3)c(-c3nc(C(=O)NC(C)C)cs3)o2)CC1` [Example 1237] was above 1 µM; that for `CCOC(=O)C1CCCN(Cc2nc(-c3ccc(F)cc3)c(-c3nc(C(=O)NC(C)C)cs3)o2)C1` (centres unmarked) [Example 1238] was above 1 µM; that for `CCOC(=O)N1CCN(Cc2nc(-c3ccc(F)cc3)c(-c3nc(C(=O)NC(C)C)cs3)o2)CC1` [Example 1239] was above 1 µM.
As for `CC(C)NC(=O)c1csc(-c2oc(CN(CCC#N)Cc3cccnc3)nc2-c2ccc(F)cc2)n1` [Example 1240], the figure is above 1 µM; as for `CC(C)NC(=O)c1csc(-c2oc(CN3CCN(c4ccccc4)CC3)nc2-c2ccc(F)cc2)n1` [Example 1241], above 1 µM; as for `CC(C)NC(=O)c1csc(-c2oc(CN3CCN(c4ccccn4)CC3)nc2-c2ccc(F)cc2)n1` [Example 1242], above 1 µM.
As for `CCCCN(Cc1ccccc1)Cc1nc(-c2ccc(F)cc2)c(-c2nc(C(=O)NC(C)C)cs2)o1` [Example 1243], the figure is above 1 µM.
For the molecule `CC(C)NC(=O)c1csc(-c2oc(CN(CCO)[C@H](C)c3ccccc3)nc2-c2ccc(F)cc2)n1` [Example 1244], the IC50 was above 1 µM.
Turning to `CC(C)NC(=O)c1csc(-c2oc(CN(CCCO)Cc3ccccn3)nc2-c2ccc(F)cc2)n1` [Example 1245], the IC50 was above 1 µM.
As for `CC(C)NC(=O)c1csc(-c2oc(CN(C)CC(O)c3ccc(O)cc3)nc2-c2ccc(F)cc2)n1` (centres unmarked) [Example 1246], the figure is above 1 µM.
As for `CC(C)NC(=O)c1csc(-c2oc(CN3CCN(C4CCCCC4)CC3)nc2-c2ccc(F)cc2)n1` [Example 1247], the figure is above 1 µM.
Molecule `CC(C)NC(=O)c1csc(-c2oc(CN3CCC(Cc4ccccc4)CC3)nc2-c2ccc(F)cc2)n1` [Example 1248] gave an IC50 above 1 µM.
As for `CC(C)NC(=O)c1csc(-c2oc(CN3CCN(Cc4ccccc4)CC3)nc2-c2ccc(F)cc2)n1` [Example 1249], the IC50 was above 1 µM.

A word on the IC50: it is the point on the concentration scale where inhibition reaches its midpoint. Higher therefore signals weaker potency.
